Where two headings read alike, the source gives them in different places. Where only a bound is given, the exact number is not on record here.

The test system of one test is adenylate cyclase. Put plainly: Forskolin stimulation of intracellular cAMP in control or transfected CHO-K1 cells. The note with it: Cricetulus griseus, CHO-K1, 20 min, read-out: increase in intracellular cAMP levels over basal values. On the procedure: (§1) Transfected cells (3×10^5 cells per dish) were washed once with PBS and incubated in PBS containing 1 mM 3-isobutyl-1-methylxanthine (Sigma) at 37° C. for 20 min. Agonists, at the indicated final concentrations, were added to the cultures along with 10 μM forskolin (Sigma), and cultures were incubated at 37° C. for an additional 20 min. Incubations were terminated by the addition of 6% trichloroacetic acid. Trichloroacetic acid extracts were extracted four times with distilled water-saturated ether, and cMAP concentrations were determined using a cAMP radioimmunoassay kit (New England Nuclear). Data are expressed as percent forskolin-stimulated cAMP production. […]
(§2) Another aspect of the present invention relates to another drug screening method that identifies new compounds with biogenic amine (agonists) or antagonist activity for biogenic receptors by measuring adenylate cyclase concentrations in transfected CHO-K1 cells expressing octopamine receptors. […] In the presence of forskolin, known concentrations of octopamine are added and the attenuation of forskolin stimulated cyclase AMP is calculated. A potential antagonist is determined by the competitive reversal of octopamine mediated attenuation of forskolin stimulated cyclic AMP accumulation when the drug is added to the assayed transfected cells. […]
(Changes in cAMP serve as a functional read-out for many G protein-coupled receptors.)

The target of test [1] is T1, Drosophila octopamine receptor (Drosophila melanogaster, UniProt P22270).
T1 construct: membranes or whole cells
T1 sequence (P22270 27-601): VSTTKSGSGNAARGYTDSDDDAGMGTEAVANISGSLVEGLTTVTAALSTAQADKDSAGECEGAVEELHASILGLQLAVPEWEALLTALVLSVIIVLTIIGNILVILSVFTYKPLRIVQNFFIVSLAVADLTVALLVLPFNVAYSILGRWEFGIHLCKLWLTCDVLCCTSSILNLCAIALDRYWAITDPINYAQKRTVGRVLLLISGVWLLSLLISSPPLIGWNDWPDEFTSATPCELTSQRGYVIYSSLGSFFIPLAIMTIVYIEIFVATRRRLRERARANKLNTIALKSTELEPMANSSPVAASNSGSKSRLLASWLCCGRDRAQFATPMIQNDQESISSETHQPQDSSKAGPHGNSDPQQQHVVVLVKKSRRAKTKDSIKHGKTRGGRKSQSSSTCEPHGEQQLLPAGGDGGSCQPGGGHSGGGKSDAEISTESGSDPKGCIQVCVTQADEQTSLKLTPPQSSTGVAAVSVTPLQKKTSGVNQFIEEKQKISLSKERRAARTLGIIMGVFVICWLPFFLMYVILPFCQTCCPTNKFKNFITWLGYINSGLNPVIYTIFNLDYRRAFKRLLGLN
Put plainly: [3H]yohimbine competition displacement binding to membranes of transfected CHO-K1 cells. The source says: (§3) In a binding assay provided herein, octopamine receptor genes isolated from a specific DNA library are inserted into a plasmid expression vector and used to transfect a Chinese hamster […] cell called CHO-K1 cells. These cells stably integrate the foreign DNA into the genome. Cells that express the insect octopamine receptor and process receptor into the mammalian cell membrane are cloned, expanded and frozen down for further use as membrane preparations in a ligand binding assay. […] After the incubations are terminated, the reaction mixture containing labeled ligand bound to receptor membranes is calculated by measuring label.
(§4) Cell membranes from transfected cells were prepared as previously described (F.-Z. Chung et al., J. Bol. Chem. 263:4052-4055 (1988); C. M. Fraser et al., Proc. Natl. Acad. Sci. USA 85:5478-5482 (1988), C. M. Fraser et al., J. Biol. Chem. 264:11754-11761 (1989), C. M. Fraser et al., Proc. Nat;. Acad. Sci. USA 85:5478-5482 (1989)).
Membrane bound octopamine receptors (20 μg of protein)
concentrations of the indicated agonists (0.1 μM to 2 mM) or
antagonists (10 nM to 200 μM). Incubations were performed at 37.degree
C. for 20 min in a final volume of 250 μl and terminated by filtration
over Whatman GF/C glass fiber filters. Experiments were repeated three
times in triplicate, and the average inhibition constants (± SD) were
caluclated using the LIGAND program of Munson and Rodbard (1980).

Test [2] addresses T1, Drosophila octopamine receptor. The experiment in a line: [3H]yohimbine saturation binding to membranes of transfected CHO-K1 cells.
Text: as §3, §4

For test [3], the system named is control, untransfected CHO-K1 cells. Put plainly: [3H]yohimbine binding to membranes of control, untransfected CHO-K1 cells. Also noted: species or system Chinese hamster. The conditions noted are these: untransfected CHO-K1 cell membranes.
Text: as §3, §4

The next test relates to Octampamine1. The conditions noted are these: locust neuromuscular preparation; data from Evans (1981/1982); cited from earlier work.
Test [4] addresses T1, Drosophila octopamine receptor. Put plainly: Attenuation of forskolin-stimulated cAMP in CHO-K1 cells expressing the Drosophila octopamine receptor. The test is classed as cell-based. On the procedure:
Transfected cells (3×10^5 cells per dish) were washed once with PBS and incubated in PBS containing 1 mM 3-isobutyl-1-methylxanthine (Sigma) at 37° C. for 20 min. Agonists, at the indicated final concentrations, were added to the cultures along with 10 μM forskolin (Sigma), and cultures were incubated at 37° C. for an additional 20 min. Incubations were terminated by the addition of 6% trichloroacetic acid. Trichloroacetic acid extracts were extracted four times with distilled water-saturated ether, and cMAP concentrations were determined using a cAMP radioimmunoassay kit (New England Nuclear). Data are expressed as percent forskolin-stimulated cAMP production. In the indicated experiments, cell cultures were incubated with Bordetella pertussis islet activating protein (200 ng/ml; list biological lab) at 37° C. for 18 hr in normal culture medium prior to the assay of cAMP. Solid and open squares represent data obtained with octopamine in transfected and control cells, respectively. Solid circles represent data with epinephrine in transfected cells. […] Data represent the average ±SEM of at least three separate experiments performed in duplicate.
Another aspect of the present invention relates to another drug screening method that identifies new compounds with biogenic amine (agonists) or antagonist activity for biogenic receptors by measuring adenylate cyclase concentrations in transfected CHO-K1 cells expressing octopamine receptors. In one embodiment, potential drugs are tested for their ability to attenuate forskolin-stimulated adenylate cyclase activity. Forskolin is added to control or octopamine receptor transfected CHO-K1 cells that stimulates increased intracellular cAMP levels in transfected cells over basal CHO-K1 levels. In the presence of forskolin, known concentrations of octopamine are added and the attenuation of forskolin stimulated cyclase AMP is calculated. A potential antagonist is determined by the competitive reversal of octopamine mediated attenuation of forskolin stimulated cyclic AMP accumulation when the drug is added to the assayed transfected cells.
Because of the pharmacological and structural similarities of the Drosophila receptor to mammalian […] receptors, the ability of octopamine to attenuate forskolin-stimulated adenylate cyclase activity was tested.

For another test, the system named is Octapamine2. The note with it: locust neuromuscular preparation; data from Evans (1981/1982); cited from earlier work.
Another test has as its system Octopamine20. The conditions noted are these: locust neuromuscular preparation; data from Evans (1981/1982); cited from earlier work.
Another test deals with control CHO-K1 cells. Put plainly: Attenuation of forskolin-stimulated cAMP in control CHO-K1 cells. The test is classed as cell-based, Chinese hamster. The note with it: 10 μM forskolin (FIG. 4). How it is done:
as §1, §2

Where [5] appears, read: displacement of 6 nM [3H]yohimbine, 37° C., 20 min, average ± SD, three times in triplicate, read-out: K1.

`C=C[C@@]1(C)CC(=O)[C@]2(O)[C@@]3(C)[C@@H](O)CCC(C)(C)[C@@H]3[C@H](O)[C@H](OC(C)=O)[C@@]2(C)O1` [forskolin]: in the test with adenylate cyclase, the fold induction at 10 µM was found to be 35.
For the molecule `CNCC(O)c1ccc(O)cc1` (racemic) [Synephrine(±), Synephrine], the Ki in test [1] was 10.8 ± 2.5 µM.
Broadly, the Kd is the constant that tells how readily two partners part at equilibrium. `COC(=O)[C@@H]1[C@H]2C[C@H]3c4[nH]c5ccccc5c4CCN3C[C@@H]2CC[C@@H]1O` [[^3 H]yohimbine] registered a dissociation constant Kd in test [2] of 0.0062 µM. Moreover, the Bmax in test [2] (transfected cell membranes) was 1.75 pmol of receptor per mg of membrane protein. Moreover, the specific radioligand binding result in [3] is recorded as “No specific radioligand binding was observed”.
One may read the EC50 as the concentration that produces a half-maximal response. In turn, `CN(C)CCCN1c2ccccc2Sc2ccc(Cl)cc21` [Chlorpromazine] returned a Ki in [1] of 0.18 ± 0.06 µM. For the same molecule, the concentration giving a half-maximal response (EC50) in the test on Octampamine1 was 0.026 µM.
Regarding `Cc1ccc(N(CC2=NCCN2)c2cccc(O)c2)cc1` [Phentolamine], the Ki in [1] (read-out: K1) stood at 2.2 ± 0.7 µM. The EC50 in the test with Octampamine1 was 0.0019 µM.
`NCCc1c[nH]c2ccc(O)cc12` [Serotonin] came in with a Ki in [1] of 75 ± 18 µM.
With `COC(=O)[C@@H]1[C@H]2C[C@H]3c4[nH]c5ccccc5c4CCN3C[C@@H]2CC[C@@H]1O` [Yohimbine], the “antagonism of octopamine-mediated attenuation of forskolin stimulated cAMP accumulation” value in [4] (transfected cells, 10 μM yohimbine (FIG. 4)) was “competitively antagonized”. Moreover, the EC50 in the test on Octampamine1 was 0.28 µM.
In the case of `CC(C)NCC(O)c1ccc(O)c(O)c1` (stereo not drawn) [Isoproterenol(-), Isoproterenol], the Ki in test [1] (setting [5]) and in [1] (read-out: Ki) was above 1000 µM in each case.
As to `NCCc1ccc(O)c(O)c1` [Dopamine], the Ki in test [1] (setting [5]) and in test [1] (read-out: Ki) was above 1000 µM throughout.
As to `CCN(CC)CCNC(=O)c1cc(Cl)c(N)cc1OC` [Metoclopramide], in test [1] (read-out: K1), the Ki was found to be 4.6 ± 1.4 µM. Further, the “EC50, Octampamine1” value in the test with Octampamine1 is “No effect-10^-6”. Moreover, the values for the EC50 in the test on Octapamine2 and with Octopamine20 were 1 µM and 9.5 µM, respectively.
In the case of `NCC(O)c1ccc(O)cc1` (racemic) [Octopamine(±), Octopamine], the Ki in test [1] (read-out: Ki) was determined as 29 ± 6 µM. Further, the activity at 100 µM in [4] (CHO-K1, 20 min, 100 μM octopamine plus 10 μM forskolin, transfected cells, read-out: cAMP levels, % of those seen with forskolin alone) came out at 46%. Further, in [4] (transfected cells pretreated with pertussis toxin 200 ng/ml, 18 hr), the “ability to attenuate forskolin-stimulated cAMP levels after Bordetella pertussis islet activating protein” value is reported as “abolished”. For the same molecule, the “attenuation of forskolin-stimulated cAMP levels” value is reported as “dose-dependent attenuation of forskolin-stimulated cAMP levels” in test [4] (transfected cells, 10 μM forskolin (FIG. 4)) and “not observed in control cells” in the test on control CHO-K1 cells.
Consider `CNC[C@H](O)c1ccc(O)c(O)c1` [Epinephrine(-), Epinephrine], for which, in test [1], the Ki came out at 139 ± 41 µM. Besides, the “attenuation of forskolin-stimulated cAMP levels” value (in [4]; in the test on control CHO-K1 cells) was “no effect on forskolin-stimulated cAMP levels” in each case.
Molecule `Clc1cccc(Cl)c1N=C1NCCN1` [Clonidine] registered a Ki in test [1] of 21 ± 7 µM. Moreover, the EC50 in the test with Octampamine1 is 0.00068 µM; in the test with Octapamine2 it was 6.4 µM.

Values taken from patent publication US5474898A, “Octopamine receptor” (The United States of America as represented by the …, priority 1994, dated 1995).
